One test concerns the target T1, COX-1 (Homo sapiens, UniProt P23219).
T1 construct: Fresh blood from healthy volunteers; from tissue; host or cells: fresh heparinized human whole blood from healthy volunteers
As to the kind of experiment: COX-1 activity in human whole blood (TXB2 by EIA after calcium ionophore A23187). The test is classed as cell-based. The settings on record: 24 h at 37° C., A23187 25 μM, TXB2 levels. As to the method:
(§1) COX-1 and COX-2 Activities in Human Whole Blood
Fresh blood from healthy volunteers who had not taken any non-steroidal anti-inflammatory drugs for at least 7 days prior to blood extraction was collected in heparinized tubes (20 units of heparin per ml). For the COX-1 activity determination, 500 μl aliquots of blood were incubated with either 5 μl vehicle (dimethylsulphoxide) or 5 μl of a test compound for 24 h at 37° C. Calcium ionophore A23187 (25 μM) was added 20 min before stopping the incubation. Plasma was separated by centrifugation (10 min at 13000 rpm) and kept at −30° C. until TXB2 levels were measured using an enzyme immunoassay kit (EIA).
The effect of the compounds was evaluated by incubating each compound at five to six different concentrations with triplicate determinations. IC50 values were obtained by non-linear regression using InPlot, GraphPad software on an IBM computer.

The target of the next test is T2, COX-2 (Homo sapiens, UniProt P35354).
T2 construct: incubated in the presence of LPS (10 μg/ml) for 24 h at 37° C. in order to induce the COX-2 expression; from tissue; host or cells: fresh heparinized human whole blood from healthy volunteers, LPS-stimulated
T2 sequence (P35354 18-604): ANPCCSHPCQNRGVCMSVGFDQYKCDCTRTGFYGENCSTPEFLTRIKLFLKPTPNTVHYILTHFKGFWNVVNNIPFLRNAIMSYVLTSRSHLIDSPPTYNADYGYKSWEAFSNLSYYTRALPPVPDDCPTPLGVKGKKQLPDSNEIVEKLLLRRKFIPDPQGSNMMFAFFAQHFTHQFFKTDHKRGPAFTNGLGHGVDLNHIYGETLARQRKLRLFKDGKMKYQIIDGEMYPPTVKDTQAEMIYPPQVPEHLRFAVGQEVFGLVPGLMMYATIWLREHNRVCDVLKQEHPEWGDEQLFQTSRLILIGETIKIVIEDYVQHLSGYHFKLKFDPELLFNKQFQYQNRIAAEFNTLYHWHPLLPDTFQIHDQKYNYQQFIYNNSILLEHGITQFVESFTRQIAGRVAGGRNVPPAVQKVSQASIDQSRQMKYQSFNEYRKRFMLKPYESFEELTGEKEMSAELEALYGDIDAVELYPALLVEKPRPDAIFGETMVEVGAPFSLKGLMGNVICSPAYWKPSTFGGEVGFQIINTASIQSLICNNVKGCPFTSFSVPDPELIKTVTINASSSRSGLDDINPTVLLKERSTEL
As to the kind of experiment: COX-2 activity in human whole blood (PGE2 by EIA after LPS induction). The settings on record: for IC50: LPS 10 μg/ml, 24 h at 37° C., PGE2 levels. The test is classed as cell-based. As to the method:
as §1
For the COX-2 activity determination, 500 μl aliquots of blood were incubated in the presence of LPS (10 μg/ml) for 24 h at 37° C. in order to induce the COX-2 expression (Patriagnani et al., J. Pharm. Exper. Ther. 271; 1705-1712 (1994)). Plasma was separated by centrifugation (10 min at 13000 rpm) and kept at −30° C. until PGE2 levels were measured using an enzyme immunoassay kit (EIA). The effects of inhibitors were studied by incubating each compound (5 μl aliquots) at five to six different concentrations with triplicate determinations in the presence of LPS for 24 hours. IC50 values were obtained by non-linear regression using InPlot, GraphPad software on an IBM computer.

T1 sequence (P23219 24-599): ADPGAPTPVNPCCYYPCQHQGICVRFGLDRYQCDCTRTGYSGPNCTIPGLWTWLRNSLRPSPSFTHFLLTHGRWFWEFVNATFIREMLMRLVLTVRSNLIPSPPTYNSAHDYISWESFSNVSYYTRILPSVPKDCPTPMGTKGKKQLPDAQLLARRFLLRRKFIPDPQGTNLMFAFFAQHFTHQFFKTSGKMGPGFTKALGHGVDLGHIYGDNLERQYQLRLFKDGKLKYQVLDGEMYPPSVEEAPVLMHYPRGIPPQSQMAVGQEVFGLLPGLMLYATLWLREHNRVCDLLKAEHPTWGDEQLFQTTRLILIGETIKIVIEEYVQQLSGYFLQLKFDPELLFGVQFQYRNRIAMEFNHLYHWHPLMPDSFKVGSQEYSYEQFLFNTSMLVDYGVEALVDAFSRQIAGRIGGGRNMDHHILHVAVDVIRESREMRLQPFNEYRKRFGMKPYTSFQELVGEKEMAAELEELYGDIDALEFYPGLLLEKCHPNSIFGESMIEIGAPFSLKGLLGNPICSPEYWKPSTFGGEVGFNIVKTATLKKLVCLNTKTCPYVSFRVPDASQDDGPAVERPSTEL

One may read the IC50 as the point on the concentration scale where inhibition reaches its midpoint. Turning to `Cc1ccc(-c2ncc(Cl)cc2-c2ccc([S+](C)[O-])cc2)cn1` (racemic) [5-chloro-6′methyl-3-[4-(methylsulfinyl)phenyl]-2,3′-bipyridine (racemate), 5-Chloro-6′-methyl-3-[4-(methylsulfinyl)phenyl]-2,3′-bipyridine], the figures for the IC50 on COX-1 and on COX-2 were 45.5 µM and 3.7 µM, respectively. For the same compound, the “Ratio COX-1/COX-2” value at COX-2 (ratio of COX-1/COX-2 IC50 values) came out at 12.3.

Consider `Cc1ccc(-c2ncc(Cl)cc2-c2ccc([S+](C)[O-])cc2)cn1` (single isomer, unassigned) [5-chloro-6′methyl-3-[4-(methylsulfinyl)phenyl]-2,3′-bipyridine (Enantiomer 1a), 5-Chloro-6′-methyl-3-[4-(methylsulfinyl)phenyl]-2,3′-bipyridine (Enantiomer 1a)], for which the IC50 at COX-1 is 20.2 µM.

As for `Cc1ccc(-c2ncc(Cl)cc2-c2ccc([S+](C)[O-])cc2)cn1` (single isomer, unassigned) [5-chloro-6′methyl-3-[4-(methylsulfinyl)phenyl]-2,3′-bipyridine (Enantiomer 1b), 5-Chloro-6′-methyl-3-[4-(methylsulfinyl)phenyl]-2,3′-bipyridine (Enantiomer 1b)], the IC50 worked out at 77.8 µM at COX-1 and 3.5 µM against COX-2.

Source of the values: patent US20060229338A1, “2,3'-bipyridines derivatives as selective cox-2 inhibitors” (priority 2003, published 2006).
